# Measured values reported in patent US9557338B2 (SIGNAL PHARMACEUTICALS, LLC, priority 2012, dated 2017).
# Where two headings read alike, the source gives them in different places.
# Columns and labels:
# Type in all cases: cell-based
# PC3 = assay: Growth inhibition (cell proliferation assay), PC3; details: read-out: Compound 1 Growth Inhibition IC50
# HCT116 = assay: Growth inhibition (cell proliferation assay), HCT116; details: read-out: Compound 1 Growth Inhibition IC50
# mTORC1 = target: T1, mTORC1 (Homo sapiens, UniProt P42345); assay: Inhibition of mTORC1 measured by phosphorylation of pathway markers (FIG. 1); details: phosphorylation of pathway markers Akt, PRAS40, GSK-3β, p70S6, S6, 4-EBP1
# T1 construct: endogenous in cells; host or cells: PC3, A549, HCT116, U-87 MG, MDA-MB-231, NCI-H23, HT-29
# Description: The activity of the TORC1 complex can be followed from the phosphorylation status of 4E-BP1(T46), a direct substrate of mTOR kinase and S6RP(S235/S236), a downstream substrate from mTOR. The activity of the TORC2 complex can be followed directly from the phosphorylation status of Akt(S473) and indirectly from the phosphorylation status of AKT substrates, GSK3β(S9) and PRAS40(T246). […] Full activation of Akt requires an additional phosphorylation on T308 that is done by PDK1 and is speculated to be co-dependent with the TORC2 phosphorylation of the Akt(S473).
# Phospho-PRAS40(T246) = assay: Luminex multiplex assay, Phospho-PRAS40(T246)
# Summary of the method: (§1)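 Cells (PC3; HCT-116, MDA-MB-231 and HT29 with 500 ng/mL recombinant human IGF-I for the final 10 min) treated with compound or rapamycin over a concentration range for 1 h at 37° C, 5% CO2. Lysates read by bead-based Luminex sandwich immunoassay, 3 h at room temperature, RPE anti-rabbit detection, quantified against phosphoprotein standard curves.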
# p70S6K = assay: Luminex multiplex assay, p70S6K phosphorylation in cell lysates
# Akt(T308) = assay: Inhibition of Akt(T308) phosphorylation in cell lines; details: read-out: p-Akt(T308)
# Akt(S473) = assay: Inhibition of Akt(S473) phosphorylation in cell lines; details: read-out: p-Akt (S473)
# Phospho-GSK3β(S9) = assay: Luminex multiplex assay, Phospho-GSK3β(S9)
# Summary of the method: as §1
# HT-29 = assay: Growth inhibition (cell proliferation assay), HT-29; details: read-out: Compound 1 Growth Inhibition IC50
smiles,measurement,setting,value
"CO[C@H]1CC[C@H](N2C(=O)CNc3ncc(-c4ccc(C(C)(C)O)nc4)nc32)CC1 [Compound 1, 7-(6-(2-hydroxypropan-2-yl)pyridin-3-yl)-1-((1r,4r)-4-methoxycyclohexyl)-3,4-dihydropyrazino-[2,3-b]pyrazin-2(1H)-one]",IC50,PC3,110 nM
same,IC50,HCT116,370 nM
same,inhibition of mTORC1,mTORC1,inhibition
same,IC50,"Phospho-PRAS40(T246); A549, read-out: p-PRAS40 (T246)",750 nM
same,IC50,"Phospho-PRAS40(T246); HCT116, IGF-I stimulation, read-out: p-PRAS40 (T246)",430 nM
same,IC50,"Phospho-PRAS40(T246); HCT116 cell line, IGF, read-out: Luminex PRAS40 (IGF)",430 nM
same,IC50,"Phospho-PRAS40(T246); HT-29, IGF-I stimulation, read-out: p-PRAS40 (T246)",350 nM
same,IC50,"Phospho-PRAS40(T246); MDA-MB-231, IGF-I stimulation, read-out: p-PRAS40 (T246)",280 nM
same,IC50,"Phospho-PRAS40(T246); NCI-H23, read-out: p-PRAS40 (T246)",190 nM
same,IC50,"Phospho-PRAS40(T246); PC3, read-out: p-PRAS40 (T246)",140 nM
same,IC50,"Phospho-PRAS40(T246); U87MG cell line, read-out: Luminex PRAS40",362 nM
same,IC50,"Phospho-PRAS40(T246); U-87 MG, read-out: p-PRAS40 (T246)",360 nM
same,IC50,"p70S6K; HCT116 cell line, IGF, read-out: Luminex p70S6K (IGF)",191 nM
same,IC50,"p70S6K; U87MG cell line, read-out: Luminex p70S6K",103 nM
same,IC50,Akt(T308); A549,640 nM
same,IC50,Akt(T308); HCT116,1950 nM
same,IC50,Akt(T308); HT-29,240 nM
same,IC50,Akt(T308); PC3,130 nM
same,IC50,Akt(T308); U-87 MG,260 nM
same,IC50,Akt(S473); A549,120 nM
same,IC50,Akt(S473); HCT116,100 nM
same,IC50,Akt(S473); HT-29,250 nM
same,IC50,Akt(S473); MDA-MB-231,40 nM
same,IC50,Akt(S473); NCI-H23,100 nM
same,IC50,Akt(S473); PC3,10 nM
same,IC50,Akt(S473); U-87 MG,150 nM
same,IC50,"Phospho-GSK3β(S9); HCT116, IGF-I stimulation, read-out: p-GSK3β (S9)",220 nM
same,IC50,"Phospho-GSK3β(S9); HCT116 cell line, IGF, read-out: Luminex GSK-3β (IGF)",359 nM
same,IC50,"Phospho-GSK3β(S9); HT-29, IGF-I stimulation, read-out: p-GSK3β (S9)",> 2000 nM
same,IC50,"Phospho-GSK3β(S9); NCI-H23, read-out: p-GSK3β (S9)",> 2000 nM
same,IC50,"Phospho-GSK3β(S9); PC3, read-out: p-GSK3β (S9)",230 nM
same,IC50,"Phospho-GSK3β(S9); U87MG cell line, read-out: Luminex GSK-3β",281 nM
same,IC50,"Phospho-GSK3β(S9); U-87 MG, read-out: p-GSK3β (S9)",280 nM
same,IC50,HT-29,> 20000 nM
